Earlier results in US4127521A, “Novel octacosapeptides, intermediates therefor and pharmaceutical compositions and methods employing said octacosapeptides” (priority 1977, dated 1978).

What was measured:
[1] = injected directly into the brain of the rat
[2] = system: brain opiate receptor sites

H-Tyr-Gly-Gly-Phe-Met-OH [methionine enkephalin]
analgesic activity [1]: weak analgesic agent of short duration | binding to partially purified brain opiate receptor sites [2]: binds stereo-specifically
